Legend:
ADAMTS5 = target: T1, ADAMTS5 (Homo sapiens, UniProt Q9UNA0); assay: Versicanase assay (V1-5GAG, versikine sandwich ELISA); format: biochemical
T1 construct: Human recombinant full-length FLAG-tagged ADAMTS4 and ADAMTS5 were expressed in HEK293T cells; FLAG; made in house; host or cells: HEK293T cells
T1 sequence (Q9UNA0 262-930): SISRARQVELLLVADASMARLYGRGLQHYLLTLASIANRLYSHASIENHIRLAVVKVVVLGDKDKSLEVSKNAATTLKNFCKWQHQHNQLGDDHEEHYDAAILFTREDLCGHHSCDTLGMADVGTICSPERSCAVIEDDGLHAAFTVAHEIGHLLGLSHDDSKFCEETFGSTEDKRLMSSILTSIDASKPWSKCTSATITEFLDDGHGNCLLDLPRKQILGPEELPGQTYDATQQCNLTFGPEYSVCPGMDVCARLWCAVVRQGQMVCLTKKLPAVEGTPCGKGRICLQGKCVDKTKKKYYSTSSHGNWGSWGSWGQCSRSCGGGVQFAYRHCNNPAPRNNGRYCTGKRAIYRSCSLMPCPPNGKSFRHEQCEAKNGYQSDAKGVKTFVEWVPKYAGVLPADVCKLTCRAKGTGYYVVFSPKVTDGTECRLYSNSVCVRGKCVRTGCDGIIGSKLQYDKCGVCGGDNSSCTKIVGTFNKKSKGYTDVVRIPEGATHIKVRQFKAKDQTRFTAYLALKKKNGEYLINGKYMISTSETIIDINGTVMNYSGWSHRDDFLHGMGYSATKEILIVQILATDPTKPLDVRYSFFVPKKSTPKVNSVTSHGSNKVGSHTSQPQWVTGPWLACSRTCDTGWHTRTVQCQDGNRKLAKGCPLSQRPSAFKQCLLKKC

[1] = test system: human OA cartilage explants; assay: Cell viability MTS assay; format: cell-based; settings: 100 µM; 72 h; vs DMSO control
Protocol: Human OA cartilage was obtained from Clatterbridge Hospital, Wirral, UK, following total knee arthroplasty procedures with informed patient consent in full compliance with national and institutional ethical requirements, the United Kingdom Human Tissue Act, and the Declaration of Helsinki (REC 18/WA/0344). Explants (~ 36 mm^3, ~ 40 mg wet volume/weight) from each of 3 donors were placed in one well of a 48-well plate and allowed to rest for 24 h in 1 ml of DMEM containing 10% FBS before use. The medium was replaced, and the cartilage was rested for a further 24 h in 1 ml DMEM at 37 °C before assays.
Cell viability was assessed using CellTiter® 96 Aqueous One Solution Cell Proliferation Assay (Promega, G3582) following the manufacturer’s protocol. The assay is based on the reduction of [3-(4,5-dimethylthiazol-2-yl)-5-(3-carboxymethoxyphenyl)-2-(4-sulfophenyl)-2 H-tetrazolium] (MTS) and phenazine ethosulfate into formazan. Compounds 2 and 4b, GM6001 (Merck, 364206) (10–100 µM), or DMSO control were incubated in 48-well Nunc™ plates (Thermo Fisher Scientific,150687) with HEK293T cells, human non-OA chondrocytes, porcine cartilage explants, or human OA cartilage explants for 72 h. At least 3 independent experiments were carried out with 3 technical replicates each. […] Absorbance at 490 nm was measured on a SpectraMax i3x Multi-Mode Platform (Molecular Devices). […]

With `CCC(C)N(Cc1cn(CCCO[C@@H]2O[C@H](CO)[C@@H](O[C@@H]3O[C@H](CO)[C@H](O)[C@H](O)[C@H]3O)[C@H](O)[C@H]2NC(C)=O)nn1)S(=O)(=O)c1ccc(-c2ccccc2)cc1` (stereo partly drawn) [compound 2, N-((2R,3R,4R,5 S,6R)-2-(3-(4-((N-(sec-butyl)-[1,1’-biphenyl]-4-sulfonamido)methyl)-1H-1,2,3-triazol-1-yl)propoxy)-4-hydroxy-6-(hydroxymethyl)-5-(((2 S,3R,4 S,5R,6R)-3,4,5-trihydroxy-6-(hydroxymethyl)tetrahydro-2 H-pyran-2-yl)oxy)tetrahydro-2 H-pyran-3-yl)acetamide] the inhibition at 100 µM (ADAMTS5; 100 µM, compared to DMSO control) was 76%, the “IC50 of compound 2 relative to parent compound 4b (higher)” value (ADAMTS5; ADAMTS5 versicanase activity) was ~ 4 fold and the IC50 (ADAMTS5; read-out: IC50 for inhibition of ADAMTS5 versicanase activity) was 35 ± 4.8 µM. The “effect on cell viability” value [1] was “no effect on cell viability was observed”.
